From ChEMBL document CHEMBL2069251, “Synthesis and antifungal activity of 1-thia-4b-aza-cyclopenta[b]fluorene-4,10-diones” (2012)
≈ marks a conversion by molar mass, not a printed value.

Legend:
Type in all cases: functional
Candida albicans = experiment: Antifungal activity against Candida albicans Berkout KCCM 50235 after 1 day by twofold broth dilution method; conditions: Berkout KCCM 50235, 24 h
Candida tropicalis = experiment: Antifungal activity against Candida tropicalis Berkout KCCM 50662 after 1 day by twofold broth dilution method; conditions: Berkout KCCM 50662, 24 h
Pichia kudriavzevii = experiment: Antifungal activity against Candida krusei Berkout KCCM 11655 after 1 day by twofold broth dilution method; conditions: Berkout KCCM 11655, 24 h
Cryptococcus neoformans = experiment: Antifungal activity against Cryptococcus neoformans KCCM 50564 after 1 day by twofold broth dilution method; conditions: KCCM 50564, 24 h
Aspergillus niger = experiment: Antifungal activity against Aspergillus niger KCTC 1231 after 2 days by twofold broth dilution method; conditions: KCTC 1231, 48 h
Aspergillus flavus = experiment: Antifungal activity against Aspergillus flavus KCCM 11899 after 2 days by twofold broth dilution method; conditions: KCCM 11899, 48 h

| SMILES | MIC (Candida albicans) [µg/mL] | MIC (Candida tropicalis) [µg/mL] | MIC (Pichia kudriavzevii) [µg/mL] | MIC (Cryptococcus neoformans) [µg/mL] | MIC (Aspergillus niger) [µg/mL] | MIC (Aspergillus flavus) [µg/mL] |
| --- | --- | --- | --- | --- | --- | --- |
| CCOC(=O)c1c2c(n3ccc(C#N)cc13)C(=O)c1cc(C(=O)OC)sc1C2=O | 12.5 (≈ 30.6 µM) | 12.5 (≈ 30.6 µM) | 50 (≈ 122 µM) | 25 (≈ 61.2 µM) | 3.2 (≈ 7.84 µM) | 50 (≈ 122 µM) |
| COC(=O)c1cc2c(s1)C(=O)C(Cl)=C([n+]1ccc(OC)cc1)C2=O.[Cl-] | 100 | 50 | 50 | 50 | 100 | 50 |
| COC(=O)c1cc2c(s1)C(=O)c1c(C(C)=O)c3ccc(Br)cn3c1C2=O | 6.3 (≈ 14.6 µM) | 12.5 (≈ 28.9 µM) | 6.3 (≈ 14.6 µM) | 1.6 (≈ 3.7 µM) | 6.3 (≈ 14.6 µM) | 12.5 (≈ 28.9 µM) |
| CCOC(=O)c1c2c(n3cc(C)ccc13)C(=O)c1cc(C(=O)OC)sc1C2=O | 25 (≈ 62.9 µM) | 12.5 (≈ 31.5 µM) | 25 (≈ 62.9 µM) | 12.5 (≈ 31.5 µM) | 25 (≈ 62.9 µM) | 6.3 (≈ 15.9 µM) |
| CCOC(=O)c1c2c(n3cc(Cl)ccc13)C(=O)c1cc(C(=O)OC)sc1C2=O | 6.3 (≈ 15.1 µM) | 6.3 (≈ 15.1 µM) | 6.3 (≈ 15.1 µM) | 25 (≈ 59.8 µM) | 6.3 (≈ 15.1 µM) | 25 (≈ 59.8 µM) |
| COC(=O)c1cc2c(s1)C(=O)C(Cl)=C([n+]1cccc(Br)c1)C2=O.[Cl-] | 50 | 50 | 25 | 50 | 12.5 | 50 |
| COC(=O)c1cc2c(s1)C(=O)C(Cl)=C([n+]1ccc(C#N)cc1)C2=O.[Cl-] | 25 | 50 | 50 | 6.3 | 3.2 | 6.3 |
| CCOC(=O)c1c2c(n3ccccc13)C(=O)c1cc(C(=O)OC)sc1C2=O | 50 (≈ 130 µM) | 12.5 (≈ 32.6 µM) | 12.5 (≈ 32.6 µM) | 50 (≈ 130 µM) | 12.5 (≈ 32.6 µM) | 50 (≈ 130 µM) |
| COC(=O)c1cc2c(s1)C(=O)c1c(C(C)=O)c3cc(C#N)ccn3c1C2=O | 25 (≈ 66.1 µM) | 25 (≈ 66.1 µM) | 25 (≈ 66.1 µM) | 6.3 (≈ 16.7 µM) | 12.5 (≈ 33 µM) | 12.5 (≈ 33 µM) |
| CCOC(=O)c1c2c(n3cc(F)ccc13)C(=O)c1cc(C(=O)OC)sc1C2=O | 6.3 (≈ 15.7 µM) | 50 (≈ 125 µM) | 12.5 (≈ 31.1 µM) | 12.5 (≈ 31.1 µM) | 50 (≈ 125 µM) | 12.5 (≈ 31.1 µM) |
| COC(=O)c1cc2c(s1)C(=O)C(Cl)=C([n+]1ccc(Cl)cc1)C2=O.[Cl-] | 12.5 | 25 | 50 | 12.5 | 3.2 | 12.5 |
| COC(=O)c1cc2c(s1)C(=O)c1c(C(C)=O)c3ccc(C)cn3c1C2=O | 12.5 (≈ 34 µM) | 25 (≈ 68 µM) | 50 (≈ 136 µM) | 12.5 (≈ 34 µM) | 6.3 (≈ 17.1 µM) | 12.5 (≈ 34 µM) |
| CCOC(=O)c1c2c(n3cc(Br)ccc13)C(=O)c1cc(C(=O)OC)sc1C2=O | 3.2 (≈ 6.92 µM) | 1.6 (≈ 3.46 µM) | 12.5 (≈ 27 µM) | 1.6 (≈ 3.46 µM) | 3.2 (≈ 6.92 µM) | 1.6 (≈ 3.46 µM) |
| OC(Cn1cncn1)(Cn1cncn1)c1ccc(F)cc1F [FLUCONAZOLE] | 50 (≈ 163 µM) | 3.2 (≈ 10.4 µM) | 25 (≈ 81.6 µM) | 6.3 (≈ 20.6 µM) | 6.3 (≈ 20.6 µM) | 25 (≈ 81.6 µM) |
| COC(=O)c1cc2c(s1)C(=O)c1c(C(C)=O)c3ccc(Cl)cn3c1C2=O | 12.5 (≈ 32.2 µM) | 3.2 (≈ 8.25 µM) | 6.3 (≈ 16.2 µM) | 3.2 (≈ 8.25 µM) | 12.5 (≈ 32.2 µM) | 25 (≈ 64.5 µM) |
| COC(=O)c1cc2c(s1)C(=O)C(Cl)=C([n+]1cccc(Cl)c1)C2=O.[Cl-] | 3.2 | 1.6 | 3.2 | 50 | 3.2 | 3.2 |
| COC(=O)c1cc2c(s1)C(=O)c1c(C(C)=O)c3ccc(F)cn3c1C2=O | 50 (≈ 135 µM) | 25 (≈ 67.3 µM) | 25 (≈ 67.3 µM) | 50 (≈ 135 µM) | 50 (≈ 135 µM) | 50 (≈ 135 µM) |
| CCOC(=O)c1c2c(n3ccc(OC)cc13)C(=O)c1cc(C(=O)OC)sc1C2=O | 50 (≈ 121 µM) | 50 (≈ 121 µM) | 100 (≈ 242 µM) | 50 (≈ 121 µM) | 100 (≈ 242 µM) | 50 (≈ 121 µM) |
| Nc1nc(=O)[nH]cc1F [FLUCYTOSINE] | 3.2 (≈ 24.8 µM) | 6.3 (≈ 48.8 µM) | 6.3 (≈ 48.8 µM) | 6.3 (≈ 48.8 µM) | 6.3 (≈ 48.8 µM) | 25 (≈ 194 µM) |
| COC(=O)c1cc2c(s1)C(=O)c1c(C(C)=O)c3cc(Cl)ccn3c1C2=O | 50 (≈ 129 µM) | 25 (≈ 64.5 µM) | 50 (≈ 129 µM) | 12.5 (≈ 32.2 µM) | 6.3 (≈ 16.2 µM) | 12.5 (≈ 32.2 µM) |
| COC(=O)c1cc2c(s1)C(=O)c1c(C(=O)OC)c3ccccn3c1C2=O | 50 (≈ 135 µM) | 25 (≈ 67.7 µM) | 50 (≈ 135 µM) | 12.5 (≈ 33.8 µM) | 25 (≈ 67.7 µM) | 12.5 (≈ 33.8 µM) |
| COC(=O)c1cc2c(OC)ccc(OC)c2s1 | 100 (≈ 396 µM) | > 100 | 50 (≈ 198 µM) | > 100 | 100 (≈ 396 µM) | 100 (≈ 396 µM) |
| CCc1ccc[n+](C2=C(Cl)C(=O)c3sc(C(=O)OC)cc3C2=O)c1.[Cl-] | 50 | 25 | 50 | 12.5 | 6.3 | 12.5 |
| CCc1ccc2c(C(C)=O)c3c(n2c1)C(=O)c1cc(C(=O)OC)sc1C3=O | 12.5 (≈ 32.8 µM) | 50 (≈ 131 µM) | 50 (≈ 131 µM) | 6.3 (≈ 16.5 µM) | 12.5 (≈ 32.8 µM) | 6.3 (≈ 16.5 µM) |
